Results from ChEMBL document CHEMBL1201862, “PubChem BioAssay data set” (2004).
The source made the active and inactive calls.

Key:
Estrogen receptor = biological target: T1, Estrogen receptor (Homo sapiens, UniProt P03372);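 further: potency for inhibiting coactivator peptide recruitment to the receptor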
T1 sequence (P03372 whole entry): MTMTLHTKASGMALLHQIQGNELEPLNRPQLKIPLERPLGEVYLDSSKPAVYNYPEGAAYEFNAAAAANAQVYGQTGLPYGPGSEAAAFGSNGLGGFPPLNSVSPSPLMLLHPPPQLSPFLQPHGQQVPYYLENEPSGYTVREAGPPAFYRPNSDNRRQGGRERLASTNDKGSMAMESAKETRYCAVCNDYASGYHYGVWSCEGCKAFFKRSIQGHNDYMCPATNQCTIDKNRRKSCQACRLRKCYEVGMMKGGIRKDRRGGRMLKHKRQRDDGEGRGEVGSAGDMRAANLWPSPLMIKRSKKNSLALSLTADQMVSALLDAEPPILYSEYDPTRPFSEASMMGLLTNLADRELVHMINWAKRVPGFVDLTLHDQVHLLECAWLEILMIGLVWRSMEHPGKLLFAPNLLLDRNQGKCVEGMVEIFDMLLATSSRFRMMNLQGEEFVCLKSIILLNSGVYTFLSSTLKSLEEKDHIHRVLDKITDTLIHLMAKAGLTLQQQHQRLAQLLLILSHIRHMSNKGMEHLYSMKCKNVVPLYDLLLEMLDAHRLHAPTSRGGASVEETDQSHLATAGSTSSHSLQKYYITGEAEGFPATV

[1] = biological target: Eukaryotic translation initiation factor 4E (Mus musculus, UniProt P63073); test: blockers of eIF4G binding by eIF4E – biochemical, TR-FRET, dose response (AID 855); assay type: functional;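 further: potency for disrupting eIF4E binding to eIF4GI seen as loss of FRET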
Chain of Eukaryotic translation initiation factor 4E (P63073 whole entry): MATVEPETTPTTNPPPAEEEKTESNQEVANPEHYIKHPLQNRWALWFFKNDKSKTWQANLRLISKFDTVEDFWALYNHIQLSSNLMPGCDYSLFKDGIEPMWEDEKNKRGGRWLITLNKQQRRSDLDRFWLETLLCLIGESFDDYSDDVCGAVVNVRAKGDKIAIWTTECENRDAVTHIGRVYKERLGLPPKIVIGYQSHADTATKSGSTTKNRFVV

[2] = biological target: T2, Rac GTPase-activating protein 1 (Homo sapiens, UniProt Q9H0H5); test: blockers of MgcRacGAP-driven Rac1 GTP hydrolysis – biochemical, ADP Hunter fluorescence, primary and confirmatory, confirmation (AID 624330); assay type: functional
T2 sequence (Q9H0H5 whole entry): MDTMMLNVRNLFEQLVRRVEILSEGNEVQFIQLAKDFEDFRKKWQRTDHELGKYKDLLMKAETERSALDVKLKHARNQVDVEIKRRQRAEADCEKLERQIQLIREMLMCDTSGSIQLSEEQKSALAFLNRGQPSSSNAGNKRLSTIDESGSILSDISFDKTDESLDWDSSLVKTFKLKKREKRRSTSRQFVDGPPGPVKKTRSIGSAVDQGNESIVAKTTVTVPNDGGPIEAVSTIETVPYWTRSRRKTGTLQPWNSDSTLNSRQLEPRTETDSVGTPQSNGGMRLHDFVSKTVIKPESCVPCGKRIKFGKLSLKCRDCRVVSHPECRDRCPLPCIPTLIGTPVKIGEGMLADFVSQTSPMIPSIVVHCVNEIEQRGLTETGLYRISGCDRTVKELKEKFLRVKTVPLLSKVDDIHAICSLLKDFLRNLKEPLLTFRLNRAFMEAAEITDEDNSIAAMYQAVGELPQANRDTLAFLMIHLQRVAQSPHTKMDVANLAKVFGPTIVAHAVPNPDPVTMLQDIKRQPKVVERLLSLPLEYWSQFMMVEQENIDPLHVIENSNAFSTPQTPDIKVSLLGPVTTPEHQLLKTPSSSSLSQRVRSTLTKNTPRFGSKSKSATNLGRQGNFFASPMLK

[3] = Luminescence Cell-Based Dose Confirmation HTS to Identify Activators of 5'UTR Stem-Loop Driven Alpha-Synuclein mRNA Translation in H4 Neuroglioblastoma Cells. [Related pubchem assays: 1829 (Project Summary), 1814 (Primary HTS)]; assay type: functional
H4 = test: Luminescence Cell-Based Dose Response HTS to Identify Activators of 5'UTR Stem-Loop Driven Prion Protein mRNA Translation in H4 Neuroglioblastoma Cells. [Related pubchem assays: 1829 (Project Summary), 1814 (Primary HTS)]; assay type: functional; conditions: Homo sapiens
[4] = Luminescence Cell-Based Dose Response HTS to Identify Activators of Luciferase Translation or Activity in H4 […] Cells. [Related pubchem assays: 1829 (Project Summary), 1814 (Primary HTS)]; assay type: functional
Cytochrome P450 3A4 = Cytochrome P450 3A4 (Homo sapiens, UniProt P08684); conditions: Potency;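 further: confirmatory qHTS run detecting inhibitors and substrates of CYP3A4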
Chain of Cytochrome P450 3A4 (P08684 whole entry): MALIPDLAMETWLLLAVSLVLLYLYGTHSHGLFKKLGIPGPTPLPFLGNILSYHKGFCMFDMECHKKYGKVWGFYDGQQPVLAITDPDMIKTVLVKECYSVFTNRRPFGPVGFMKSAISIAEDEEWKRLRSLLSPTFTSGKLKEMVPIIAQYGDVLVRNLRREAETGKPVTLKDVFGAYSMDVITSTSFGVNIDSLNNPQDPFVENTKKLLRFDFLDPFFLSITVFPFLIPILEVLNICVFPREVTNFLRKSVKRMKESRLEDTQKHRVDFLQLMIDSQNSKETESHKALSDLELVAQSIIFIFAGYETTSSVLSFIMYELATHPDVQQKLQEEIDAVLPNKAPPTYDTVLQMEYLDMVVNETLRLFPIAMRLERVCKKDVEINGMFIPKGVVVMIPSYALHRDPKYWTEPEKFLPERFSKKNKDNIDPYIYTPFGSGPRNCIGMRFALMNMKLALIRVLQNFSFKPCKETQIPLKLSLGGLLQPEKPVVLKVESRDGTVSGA

Streptococcus = test: GAS UMAA2166 growth inhibition – luminescence, BacTiterGlo, counter-screen for streptokinase expression inhibitor project, dose response (AID 1915); assay type: functional, organism-based;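 further: potency for reduction of bacterial viability or growth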
Genome polyprotein = Genome polyprotein (dengue virus type 2, UniProt P29990); test: flavivirus cap methylation enzyme inhibition – biochemical, confirmation dose response, primary screen (AID 588689); assay type: functional
Chain of Genome polyprotein (P29990 2492-3391 limits assumed): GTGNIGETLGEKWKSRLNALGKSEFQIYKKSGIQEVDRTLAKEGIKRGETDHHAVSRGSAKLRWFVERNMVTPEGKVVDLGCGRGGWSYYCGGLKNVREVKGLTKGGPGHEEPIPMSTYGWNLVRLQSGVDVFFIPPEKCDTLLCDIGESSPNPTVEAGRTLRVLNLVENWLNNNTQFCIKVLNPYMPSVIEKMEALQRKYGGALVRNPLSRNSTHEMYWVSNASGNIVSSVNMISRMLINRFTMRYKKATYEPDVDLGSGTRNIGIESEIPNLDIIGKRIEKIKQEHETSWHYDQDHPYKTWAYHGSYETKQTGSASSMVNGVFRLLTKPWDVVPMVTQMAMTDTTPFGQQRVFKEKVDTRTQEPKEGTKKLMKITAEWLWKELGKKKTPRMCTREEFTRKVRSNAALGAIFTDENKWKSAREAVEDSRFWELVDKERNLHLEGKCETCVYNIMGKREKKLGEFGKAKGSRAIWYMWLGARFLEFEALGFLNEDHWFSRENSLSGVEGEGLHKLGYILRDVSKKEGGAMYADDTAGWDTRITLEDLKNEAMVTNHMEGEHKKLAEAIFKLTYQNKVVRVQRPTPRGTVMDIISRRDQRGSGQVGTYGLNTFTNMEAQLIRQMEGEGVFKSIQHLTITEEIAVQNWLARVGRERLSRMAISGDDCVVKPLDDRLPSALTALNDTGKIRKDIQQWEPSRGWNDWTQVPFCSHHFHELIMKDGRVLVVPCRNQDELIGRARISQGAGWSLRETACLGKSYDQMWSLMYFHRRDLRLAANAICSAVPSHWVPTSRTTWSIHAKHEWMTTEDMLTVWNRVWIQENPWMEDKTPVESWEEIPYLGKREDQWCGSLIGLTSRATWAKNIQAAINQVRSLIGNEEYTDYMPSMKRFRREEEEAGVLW

[5] = Luminescence Cell-Based Dose Retest to Confirm Inhibitors of Cancer Stem Cells. [Related pubchem assays (depositor defined):AID2717, AID2721]; assay type: functional; conditions: Homo sapiens
Streptokinase A = biological target: T3, Streptokinase A (Streptococcus pyogenes serotype M1, UniProt P10520); test: viability-normalized secreted streptokinase activity reduction – plasminogen activation absorbance, OD405, dose response (AID 1914); assay type: functional, Streptococcus pyogenes M1 GAS;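 further: secreted streptokinase activity via plasminogen activation per viability signal from cell pellet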
T3 sequence (P10520 whole entry): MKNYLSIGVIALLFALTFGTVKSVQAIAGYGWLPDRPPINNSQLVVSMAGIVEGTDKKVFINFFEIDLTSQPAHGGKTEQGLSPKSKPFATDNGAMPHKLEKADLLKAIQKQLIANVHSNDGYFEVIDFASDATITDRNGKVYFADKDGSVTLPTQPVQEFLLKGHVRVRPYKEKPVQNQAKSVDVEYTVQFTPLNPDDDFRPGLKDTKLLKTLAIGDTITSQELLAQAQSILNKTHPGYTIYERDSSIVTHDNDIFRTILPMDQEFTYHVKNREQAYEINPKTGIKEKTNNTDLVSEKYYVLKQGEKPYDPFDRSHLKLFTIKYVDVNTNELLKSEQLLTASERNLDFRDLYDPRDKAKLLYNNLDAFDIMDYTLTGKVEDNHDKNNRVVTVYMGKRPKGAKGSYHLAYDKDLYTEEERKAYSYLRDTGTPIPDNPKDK

[6] = tested on: Streptococcus sp. 'group A'; test: Streptococcus pyogenes SK(-)GAS viability under kanamycin – luminescence, BacTiterGlo, confirmation, counter-screen for streptokinase expression inhibitor project, dose response (AID 1900); assay type: functional, organism-based
[7] = biological target: T4, Long-chain-fatty-acid--AMP ligase FadD28 (Mycobacterium tuberculosis, UniProt P9WQ59); test: Fluorescence polarization aasay to screen for inhibitors that compete for the binding of FadD28 to a bisubstrate Measured in Biochemical System Using Plate Reader - 2147-01_Inhibitor_Dose_CherryPick_Activity.; assay type: functional, Mycobacterium tuberculosis H37Rv
T4 sequence (P9WQ59 whole entry): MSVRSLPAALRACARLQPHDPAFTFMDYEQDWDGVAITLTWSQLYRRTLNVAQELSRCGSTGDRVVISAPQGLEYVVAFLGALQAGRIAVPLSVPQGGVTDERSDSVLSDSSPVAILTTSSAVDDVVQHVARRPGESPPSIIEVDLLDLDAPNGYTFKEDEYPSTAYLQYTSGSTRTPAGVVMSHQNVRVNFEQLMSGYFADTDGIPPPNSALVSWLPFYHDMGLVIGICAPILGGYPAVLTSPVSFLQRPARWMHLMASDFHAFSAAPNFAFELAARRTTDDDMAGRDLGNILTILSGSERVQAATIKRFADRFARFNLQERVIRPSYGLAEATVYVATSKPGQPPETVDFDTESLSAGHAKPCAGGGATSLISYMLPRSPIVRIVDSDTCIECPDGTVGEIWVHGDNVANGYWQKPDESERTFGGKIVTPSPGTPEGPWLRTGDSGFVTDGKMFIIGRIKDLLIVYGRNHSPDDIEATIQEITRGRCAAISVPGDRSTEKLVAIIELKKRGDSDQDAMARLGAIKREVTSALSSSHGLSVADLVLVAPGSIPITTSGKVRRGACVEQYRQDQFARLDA

[8] = biological target: T5, Calpain-2 catalytic subunit (Sus scrofa, UniProt P43367); test: m-calpain protease blockers, concentration series – biochemical, fluorogenic peptide substrate, dose response (AID 1420); assay type: functional
T5 sequence (P43367 whole entry): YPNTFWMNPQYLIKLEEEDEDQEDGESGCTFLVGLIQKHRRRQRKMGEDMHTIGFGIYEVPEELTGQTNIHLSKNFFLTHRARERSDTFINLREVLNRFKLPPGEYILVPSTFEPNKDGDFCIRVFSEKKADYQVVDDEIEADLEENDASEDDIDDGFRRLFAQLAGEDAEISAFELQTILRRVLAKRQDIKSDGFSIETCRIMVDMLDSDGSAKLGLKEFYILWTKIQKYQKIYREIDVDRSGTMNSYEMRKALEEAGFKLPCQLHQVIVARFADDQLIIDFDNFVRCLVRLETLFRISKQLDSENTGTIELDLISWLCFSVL

[9] = viability of uninfected HEp-2 cells – cell-based, HTS, cytotoxicity control for RSV inhibitor project, dose response (AID 2410); assay type: functional; conditions: human respiratory syncytial virus
[10] = biological target: Alkaline phosphatase, placental type (Homo sapiens, UniProt P05187); test: human placental alkaline phosphatase inhibition – biochemical, luminescence, confirmation (AID 1512); assay type: functional
Chain of Alkaline phosphatase, placental type (P05187 whole entry): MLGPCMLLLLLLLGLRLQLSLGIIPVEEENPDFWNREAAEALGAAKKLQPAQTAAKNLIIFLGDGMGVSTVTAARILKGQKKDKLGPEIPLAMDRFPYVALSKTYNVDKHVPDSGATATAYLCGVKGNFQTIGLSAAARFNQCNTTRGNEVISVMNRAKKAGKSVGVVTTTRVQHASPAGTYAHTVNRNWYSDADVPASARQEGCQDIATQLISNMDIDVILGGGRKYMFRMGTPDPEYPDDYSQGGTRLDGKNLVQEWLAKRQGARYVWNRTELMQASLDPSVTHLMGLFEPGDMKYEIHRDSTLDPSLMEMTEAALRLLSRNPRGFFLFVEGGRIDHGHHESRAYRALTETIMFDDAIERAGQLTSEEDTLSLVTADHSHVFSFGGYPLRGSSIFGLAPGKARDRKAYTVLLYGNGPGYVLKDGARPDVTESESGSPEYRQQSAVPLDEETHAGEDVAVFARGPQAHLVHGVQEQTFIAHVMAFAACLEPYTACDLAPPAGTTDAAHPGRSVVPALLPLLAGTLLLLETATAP

[11] = microbe, parasite or virus in culture; assay type: functional; conditions: Mycobacterium tuberculosis
Cytochrome P450 2C9 = Cytochrome P450 2C9 (Homo sapiens, UniProt P11712)
Chain of Cytochrome P450 2C9 (P11712 whole entry): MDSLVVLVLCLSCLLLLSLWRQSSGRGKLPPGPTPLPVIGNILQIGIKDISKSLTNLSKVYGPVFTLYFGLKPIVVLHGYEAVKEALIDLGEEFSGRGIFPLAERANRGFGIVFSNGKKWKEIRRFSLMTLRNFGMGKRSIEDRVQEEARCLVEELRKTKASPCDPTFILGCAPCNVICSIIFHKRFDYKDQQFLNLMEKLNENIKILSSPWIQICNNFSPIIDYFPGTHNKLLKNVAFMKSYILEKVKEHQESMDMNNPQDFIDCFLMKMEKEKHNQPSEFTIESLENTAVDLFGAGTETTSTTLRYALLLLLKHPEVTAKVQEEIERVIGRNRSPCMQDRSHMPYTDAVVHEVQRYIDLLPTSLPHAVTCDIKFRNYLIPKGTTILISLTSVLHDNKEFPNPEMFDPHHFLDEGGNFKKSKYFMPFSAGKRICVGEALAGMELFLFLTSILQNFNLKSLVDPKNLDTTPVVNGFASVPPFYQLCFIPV

COC(=O)COc1ccc(S(=O)(=O)Nc2ccc3c(c2)OCO3)cc1
IC50 (Estrogen receptor): > 50 µM (not active) | IC50 [1]: > 64 µM (inactive)

O=C(CNC(=O)c1ccco1)N=Nc1c(O)[nH]c2ccc([N+](=O)[O-])cc12
IC50 (cells): 20.6 µM (active)

CCc1ccc(C(=O)NNC(=O)OC)cc1
IC50 [1]: 50 µM (inactive)

O=C1c2cccnc2C(Nc2ccccc2)N1Cc1ccco1 (configuration not stated)
IC50 (cells): 15.1 µM (active)

CN(C)c1ccc2c(c1)N=C(c1ccco1)OP2(=S)N1CCOCC1 (configuration not stated)
IC50 [2]: 179 µM (active) | EC50 [3]: 15.7 µM (active) | EC50 (H4): 49.6 µM (active) | EC50 [4]: 17.9 µM (active) | IC50 [1]: > 64 µM (inactive)

COC(=O)C1(C)C=CC2(CCCCC2)N1C(=O)c1ccccc1 (configuration not stated)
AC50 (Cytochrome P450 3A4): 20 µM (inconclusive)

Cc1ccc(F)c(NC(=O)/C(C#N)=C(\O)c2ccc(C(C)(C)C)cc2)c1
EC50 (Streptococcus): > 150 µM (not active) | IC50 (Genome polyprotein): 32.6 µM (active) | AC50 [5]: 1.96 µM (active) | EC50 (Streptokinase A): > 150 µM (not active) | EC50 [6]: 16.7 µM (active) | AC50 [7]: > 100 µM (inactive)

Cc1ccccc1NC(=O)COC(=O)CCc1ccccc1
IC50 [8]: 20.8 µM (not active)

O=S(=O)(c1ccccc1Cl)N1CCCC(c2nc(O)c3nnn(Cc4ccc5c(c4)OCCO5)c3n2)C1 (configuration not stated)
IC50 (cells): 10.1 µM (active) | CC50 [9]: 16.6 µM (active)

CCc1c(C(=O)NNC(=S)NCC2CCCO2)csc1C (configuration not stated)
IC50 [10]: > 100 µM (inactive)

CC1=C(C(=O)OCC(C)C)C23C(=O)c4ccccc4C2(O1)OC(N)=C3C#N (configuration not stated)
IC50 [8]: > 50 µM (not active)

COc1cc(NC2c3ncccc3C(=O)N2Cc2ccco2)cc(OC)c1OC (configuration not stated)
IC50 (cells): 30.1 µM (active)

CN1c2ccccc2C(C)(C)C12CC(c1cccc(S(=O)(=O)N3CCCC3)c1)=NO2 (configuration not stated)
IC50 (cells): 18.3 µM (active) | CC50 [9]: 17.7 µM (active)

CC(C)CNS(=O)(=O)c1ccc(CCC(=O)Nc2cc(Cl)ccc2Oc2ccccc2)cc1
IC50 [8]: 5.08 µM (not active)

Cc1nn(Cc2cccc(C(=O)NC(C)c3ccc(C(C)(C)C)cc3)c2)c(C)c1[N+](=O)[O-] (configuration not stated)
IC50 [8]: 6.98 µM (not active)

CC(=O)Nc1ccc(S(=O)(=O)Nc2cccc3[nH]ncc23)cc1
IC50 [8]: > 50 µM (not active)

CN1C(=O)/C(=C/c2ccccc2Cl)Sc2ccc(C(=O)NCc3cccnc3)cc21
EC50 (Streptococcus): 16.1 µM (active) | EC50 (Streptokinase A): > 150 µM (not active) | EC50 [6]: 4.4 µM (active) | CC50 [11]: > 40 µM (active) | IC50 [8]: 5.27 µM (not active)

COC1(C#CC2C=CC(OC(C)=O)C(COC(C)=O)O2)CCCCC1 (configuration not stated)
AC50 (Cytochrome P450 3A4): 3.98 µM (inconclusive)

CCNC(=S)NNC(=O)c1cc(C2CC2)nc2ccccc12
IC50 [10]: > 100 µM (inactive)

Cc1cccc(-n2c(=O)c3c4c(sc3n3c(=S)[nH]nc23)CCC4)c1
IC50 [1]: 50 µM (inactive)

COc1cccc(NC(=O)COc2ccc(N3CC(C(=O)NCC(C)C)CC3=O)cc2)c1 (configuration not stated)
IC50 [1]: > 64 µM (inactive)

C/C(N)=C(/C#N)C(=O)COC(=O)CNS(=O)(=O)c1ccc2ccccc2c1
IC50 (cells): 11.8 µM (active)

CN(CCOc1ccc(C[C@H](Nc2ccccc2C(=O)c2ccccc2)C(=O)O)cc1)c1ccccn1
AC50 (Cytochrome P450 3A4): 3.16 µM (inconclusive) | AC50 (Cytochrome P450 2C9): 31.6 µM (inconclusive)

COc1cc(O)c2c(=O)c(O)c(-c3ccc(O)c(O)c3)oc2c1 [RHAMNETIN]
AC50 (Cytochrome P450 3A4): 39.8 µM (inconclusive)

C=CCc1ccc2c(c1)OCO2 [SAFROLE]
AC50 (Cytochrome P450 3A4): 3.16 µM (inconclusive)
